Key:
[1] = target: T1, ALK (Homo sapiens, UniProt Q9UM73); set-up: method as in PMID 20033049; settings: cited from earlier work
T1 construct: purchased DiscoverX

[2] = target: T2, MET (Homo sapiens, UniProt P08581); settings: cited from earlier work
T2 construct: purchased DiscoverX

[3] = tested on: EGFR; set-up: method as in PMID 20033049; settings: cited from earlier work
[4] = target: T1, ALK; experiment: KdELECT binding assay (DiscoverX); settings: read-out: Kd study, ALK
Description: (§1) Tests of the compounds confirm suitability for ALK + MET + EGFR polypharmacology optimization (Table 1). […] For compound 1, ^3 with the acrylamide function at the site corresponding to that of WZ4002, both ALK and MET binding were inhibited more weakly compared to EGFR binding. […] The sensitivity to the assay conditions seen for both forms of EGFR and uniformly tighter binding under the new assay conditions may indicate tighter binding for ALK and MET under these altered assay conditions as well.
(§2) The three tricyclic compounds (1, 2a and 2b) were purchased from the company ARTTSynthesis (www.arttsynthesis.com). Tests for binding properties were performed by the company DiscoverX (www.discoverx.com), using a concentration of 1 µM against ALK, MET and EGFR variants L858R and L858R_T790M) using KdELECT and scanKINETIC from DiscoverX [124, 125].

[5] = target: T3, EGFR (L858R) (Homo sapiens, UniProt P00533, L858R); experiment: KdELECT binding assay (DiscoverX); settings: read-out: Kd study, EGFR LR
T3 construct: purchased DiscoverX
Description: as §1, §2

[6] = target: T4, EGFR (L858R, T790M) (Homo sapiens, UniProt P00533, L858R/T790M); experiment: KdELECT binding assay (DiscoverX); settings: read-out: Kd study, EGFR LR+TM
T4 construct: purchased DiscoverX
Description: as §1, §2

[7] = target: T2, MET; experiment: KdELECT binding assay (DiscoverX); settings: read-out: Kd study, MET
Description: as §1, §2

[8] = target: T3, EGFR (L858R); experiment: scanKINETIC binding kinetics assay (DiscoverX); settings: for Percentage comparing 1 or 6 h incubation, EGFR LR: percentages significantly lower than 100% indicate slow association; for Percentage after 30× dilution, EGFR LR: apparent residual compound relative to bound value at 1 h, significantly higher than 3% indicates slow dissociation
Description: as §1
(§3) The kinetics testing results (Table 1) support several further important conclusions. […] The simultaneous appearance of slow association and slow dissociation complicates the interpretation of the results, but the percentage values shown in Table 1 show the apparent residual amounts of compounds relative to bound values at 1 h. These values indicate retention of roughly half of compound 1, and nearly all of compound 2a, after dilution. […] The similarity of compound 2a to 2b and 1 with respect to structure and binding strength, differing only in the linker to the acrylamide binding group, is further evidence that that it is the covalent binding property that determines the difference in binding kinetics, rather than e.g. a slow conformational change of the target enzymes.
as §2

[9] = target: T4, EGFR (L858R, T790M); experiment: scanKINETIC binding kinetics assay (DiscoverX); settings: for Percentage comparing 1 or 6 h incubation, EGFR LR+TM: percentages significantly lower than 100% indicate slow association; for Percentage after 30× dilution, EGFR LR+TM: apparent residual compound relative to bound value at 1 h, significantly higher than 3% indicates slow dissociation
Description: as §1, §3, §2

[10] = tested on: EGFR (L858R) and EGFR (L858R, T790M); experiment: scanKINETIC conclusions stated in text for both EGFR forms together; format: binding; settings: for Dissociation behaviour: 30-fold dilution following one hour of incubation; for Association behaviour: comparing 1-h and 6-h incubation times; for Retention of compound after dilution: relative to bound values at 1 h; for Covalent binding to EGFR (both forms): interpretation of kinetics data
Description: as §1, §3, §2

[11] = tested on: MET mutant Y1230C; set-up: method as in PMID 19459657; settings: cellular assay; cited from earlier work
[12] = Kd, EGFR LR (1 h), scanKINETIC, 1 h incubation
[13] = Kd, EGFR LR (6 h), scanKINETIC, 6 h incubation
[14] = Kd, EGFR LR+TM (1 h), scanKINETIC, 1 h incubation
[15] = Kd, EGFR LR+TM (6 h), scanKINETIC, 6 h incubation
[16] = Apparent Kd, EGFR LR (30× dilution), 30× dilution after 1 h incubation
[17] = Apparent Kd, EGFR LR+TM (30× dilution), 30× dilution after 1 h incubation

T2 sequence (P08581 25-1390): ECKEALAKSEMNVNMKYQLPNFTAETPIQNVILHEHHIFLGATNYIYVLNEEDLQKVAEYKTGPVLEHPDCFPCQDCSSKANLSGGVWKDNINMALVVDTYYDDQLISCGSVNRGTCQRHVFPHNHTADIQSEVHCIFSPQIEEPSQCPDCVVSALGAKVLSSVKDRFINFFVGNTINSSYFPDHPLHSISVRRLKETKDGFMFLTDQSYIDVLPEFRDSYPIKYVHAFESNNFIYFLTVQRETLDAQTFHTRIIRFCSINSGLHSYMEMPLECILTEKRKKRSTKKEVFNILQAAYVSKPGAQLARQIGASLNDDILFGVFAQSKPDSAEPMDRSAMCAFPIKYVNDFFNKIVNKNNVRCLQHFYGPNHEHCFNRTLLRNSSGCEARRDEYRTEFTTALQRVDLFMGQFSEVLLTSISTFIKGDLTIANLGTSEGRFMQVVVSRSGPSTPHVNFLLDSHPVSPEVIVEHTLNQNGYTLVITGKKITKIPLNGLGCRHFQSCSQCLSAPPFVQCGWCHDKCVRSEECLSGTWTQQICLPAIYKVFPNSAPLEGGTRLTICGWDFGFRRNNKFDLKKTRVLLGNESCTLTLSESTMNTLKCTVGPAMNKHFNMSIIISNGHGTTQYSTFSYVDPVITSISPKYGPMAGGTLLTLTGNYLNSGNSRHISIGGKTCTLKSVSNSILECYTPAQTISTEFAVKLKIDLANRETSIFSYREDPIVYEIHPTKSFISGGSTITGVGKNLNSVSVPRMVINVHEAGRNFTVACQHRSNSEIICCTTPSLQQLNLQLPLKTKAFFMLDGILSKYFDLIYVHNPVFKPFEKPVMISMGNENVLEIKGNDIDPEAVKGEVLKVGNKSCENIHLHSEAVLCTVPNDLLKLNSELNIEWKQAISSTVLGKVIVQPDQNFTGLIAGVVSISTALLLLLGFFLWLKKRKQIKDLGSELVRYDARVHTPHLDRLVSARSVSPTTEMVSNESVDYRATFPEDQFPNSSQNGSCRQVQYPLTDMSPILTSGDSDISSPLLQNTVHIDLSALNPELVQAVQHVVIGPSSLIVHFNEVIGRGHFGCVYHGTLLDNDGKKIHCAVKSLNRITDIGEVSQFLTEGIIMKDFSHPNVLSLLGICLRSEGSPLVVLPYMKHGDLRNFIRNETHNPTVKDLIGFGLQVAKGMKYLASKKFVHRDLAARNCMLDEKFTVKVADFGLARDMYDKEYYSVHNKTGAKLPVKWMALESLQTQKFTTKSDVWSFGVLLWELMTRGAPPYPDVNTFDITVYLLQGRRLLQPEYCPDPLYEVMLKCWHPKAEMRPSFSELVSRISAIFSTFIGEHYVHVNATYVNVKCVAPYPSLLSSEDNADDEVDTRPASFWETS
T1 sequence (Q9UM73 19-1620): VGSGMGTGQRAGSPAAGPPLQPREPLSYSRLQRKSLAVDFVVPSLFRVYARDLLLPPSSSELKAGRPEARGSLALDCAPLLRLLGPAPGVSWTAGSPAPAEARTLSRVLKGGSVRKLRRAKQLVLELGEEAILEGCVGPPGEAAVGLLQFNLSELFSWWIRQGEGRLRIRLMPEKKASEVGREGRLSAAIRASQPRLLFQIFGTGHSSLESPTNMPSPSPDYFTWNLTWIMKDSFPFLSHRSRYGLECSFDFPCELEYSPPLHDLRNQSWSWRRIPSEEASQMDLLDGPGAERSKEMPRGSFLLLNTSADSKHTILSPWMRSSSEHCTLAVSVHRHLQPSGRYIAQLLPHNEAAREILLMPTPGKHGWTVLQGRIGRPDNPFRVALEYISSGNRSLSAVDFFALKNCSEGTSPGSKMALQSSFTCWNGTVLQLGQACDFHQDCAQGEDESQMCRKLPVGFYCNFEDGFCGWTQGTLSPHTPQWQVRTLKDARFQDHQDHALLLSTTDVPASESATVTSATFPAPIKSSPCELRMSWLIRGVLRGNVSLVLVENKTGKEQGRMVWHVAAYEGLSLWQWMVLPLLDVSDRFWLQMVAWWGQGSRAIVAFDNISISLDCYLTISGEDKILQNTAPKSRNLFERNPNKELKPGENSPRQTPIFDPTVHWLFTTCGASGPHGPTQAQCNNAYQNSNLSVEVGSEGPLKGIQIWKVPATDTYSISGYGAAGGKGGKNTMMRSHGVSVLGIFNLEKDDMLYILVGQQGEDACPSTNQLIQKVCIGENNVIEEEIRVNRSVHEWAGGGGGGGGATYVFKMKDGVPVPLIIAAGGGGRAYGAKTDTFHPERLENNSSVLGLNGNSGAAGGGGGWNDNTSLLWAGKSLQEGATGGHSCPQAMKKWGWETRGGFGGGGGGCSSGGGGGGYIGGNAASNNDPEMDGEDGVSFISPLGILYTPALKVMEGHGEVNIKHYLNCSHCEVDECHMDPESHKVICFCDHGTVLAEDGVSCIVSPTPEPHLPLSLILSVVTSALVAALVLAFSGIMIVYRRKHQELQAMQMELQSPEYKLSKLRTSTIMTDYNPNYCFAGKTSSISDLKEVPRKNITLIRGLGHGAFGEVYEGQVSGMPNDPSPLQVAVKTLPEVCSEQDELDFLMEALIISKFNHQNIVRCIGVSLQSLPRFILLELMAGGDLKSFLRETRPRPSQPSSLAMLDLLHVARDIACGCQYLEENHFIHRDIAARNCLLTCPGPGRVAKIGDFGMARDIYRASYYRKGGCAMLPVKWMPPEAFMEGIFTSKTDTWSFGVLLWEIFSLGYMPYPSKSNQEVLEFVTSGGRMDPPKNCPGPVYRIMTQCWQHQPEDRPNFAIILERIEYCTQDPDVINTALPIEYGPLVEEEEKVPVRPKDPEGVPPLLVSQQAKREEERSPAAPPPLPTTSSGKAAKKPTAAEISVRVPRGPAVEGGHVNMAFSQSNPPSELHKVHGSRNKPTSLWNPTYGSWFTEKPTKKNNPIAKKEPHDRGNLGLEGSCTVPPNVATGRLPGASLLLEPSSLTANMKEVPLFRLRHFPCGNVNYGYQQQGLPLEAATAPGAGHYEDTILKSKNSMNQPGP

C=CC(=O)Nc1cccc(Oc2nc(Nc3ccc(N4CCN(C)CC4)cc3OC)ncc2Cl)c1 [WZ4002]
Binding to ALK [1]: known to bind
Binding to MET [2]: known to bind
Covalent binding to EGFR [3]: known to bind covalently to EGFR

C=CC(=O)Nc1cccc(Nc2nc(Nc3ccccc3)ncc2Cl)c1 [compound 1, N‐(3‐{[5‐chloro‐2‐(phenylamino)pyrimidin‐4‐yl]amino}phenyl)prop‐2‐enamide]
Kd [4]: 0.8 µM
Kd [5]: 0.42 µM
Kd [6]: 0.11 µM
Kd [7]: > 1 µM
Kd [8, 12]: 0.057 µM
Kd [8, 13]: 0.0057 µM
Percentage comparing 1 or 6 h incubation, EGFR LR [8]: 10%
Kd [9, 14]: 0.025 µM
Kd [9, 15]: 0.0032 µM
Percentage comparing 1 or 6 h incubation, EGFR LR+TM [9]: 13%
Dissociation behaviour [10]: slow dissociation behavior
Association behaviour [10]: relatively slow-binding
Retention of compound after dilution [10]: roughly half

C=CC(=O)Nc1cccc(Nc2ncc(Cl)c(Nc3ccccc3)n2)c1 [compound 2a, N‐(3‐{[5‐chloro‐4‐(phenylamino)pyrimidin‐2‐yl]amino}phenyl)prop‐2‐enamide]
Kd [4]: 0.34 µM
Kd [5]: 0.71 µM
Kd [6]: 0.11 µM
Kd [7]: 0.25 µM
Kd [8, 16]: 0.34 µM
Kd [8, 12]: 0.34 µM
Kd [8, 13]: 0.047 µM
Percentage after 30× dilution, EGFR LR [8]: 100%
Percentage comparing 1 or 6 h incubation, EGFR LR [8]: 14%
Kd [9, 17]: 0.056 µM
Kd [9, 14]: 0.056 µM
Kd [9, 15]: 0.008 µM
Percentage after 30× dilution, EGFR LR+TM [9]: 100%
Percentage comparing 1 or 6 h incubation, EGFR LR+TM [9]: 14%
Dissociation behaviour [10]: slow dissociation behavior
Association behaviour [10]: relatively slow-binding
Covalent binding to EGFR (both forms) [10]: able to bind covalently
Retention of compound after dilution [10]: nearly all

C=CC(=O)NCc1cccc(Nc2ncc(Cl)c(Nc3ccccc3)n2)c1 [compound 2b, N‐[(3‐{[5‐chloro‐4‐(phenylamino)pyrimidin‐2‐yl]amino}phenyl)methyl]prop‐2‐enamide]
Kd [4]: 0.39 µM
Kd [5]: 0.78 µM
Kd [6]: 0.27 µM
Kd [7]: 0.33 µM
Kd [8, 16]: 2.9 µM
Kd [8, 12]: 0.17 µM
Kd [8, 13]: 0.11 µM
Percentage after 30× dilution, EGFR LR [8]: 5.9%
Percentage comparing 1 or 6 h incubation, EGFR LR [8]: 65%
Kd [9, 17]: 4.1 µM
Kd [9, 14]: 0.058 µM
Kd [9, 15]: 0.1 µM
Percentage after 30× dilution, EGFR LR+TM [9]: 1.4%
Percentage comparing 1 or 6 h incubation, EGFR LR+TM [9]: 170%
Time within which binding is complete [10]: ≤ 1 h
Time within which dissociation is complete ([10]; after 30-fold dilution): ≤ 5 h
Association behaviour [10]: fast association
Covalent binding to EGFR (both forms) [10]: no evidence of covalent binding

C[C@@H](Oc1cc(-c2cnn(C3CCNCC3)c2)cnc1N)c1c(Cl)ccc(F)c1Cl [crizotinib]
Weakening of binding to MET mutant Y1230C [11]: 15 fold

From paper PMC5496928, “Data driven polypharmacological drug design for lung cancer: analyses for targeting ALK, MET, and EGFR” (Journal of Cheminformatics, 2017)
